Like-named read-outs stand apart in the source and are kept apart here.
How the values were obtained:
[1] = PK study, oral bioavailability in rats; assay type: in vivo, Sprague Dawley rats; settings: for bioavailability: Sprague Dawley, rat, plasma, po
Description: For example, the oral bioavailability can be determined by the formula (1):
F=100*(AUCpo*Div/AUCiv*Dpo) (1)
where: F is bioavailability; AUCpo is dose-corrected area under curve of non-intravenous oral drug; Div is the intravenous dose; AUCiv is the area under the curve intravenous; and Dpo is the oral dose.

[2] = tested on: murine and human PCa cells; test: Viability and Incucyte Cytotox assay of PCa cells (FIG. 6); assay type: cell-based
Description: FIG. 6A depicts a line graph showing significant decline in the viability of murine and human PCa cells upon treatment with EC914 and/or Docetaxel.

[3] = tested on: triple negative breast cancer cells; test: Antiproliferative activity in TNBC cells; assay type: cell-based
Method: (§1) The artificial expression of LIF in MCF7 cells (MCF7/LIF) made those cells vulnerable to LIF inhibitors (FIG. 1) such as compound 5 (EC905) and compound 13 (EC915)
(§2) In order to identify the mechanism of action of EC914, we checked cytotoxicity of these compounds in various cells lines and derived IC50 values. Briefly, 5×10^3 cells were seeded in 96-well plates and incubated with compounds (0.0001-10 μmol/L) or dimethyl sulfoxide (DMSO; 0.02% v/v) for 24, 48, and 72 hours at 37° C. and cell viability was measured using a Fluoroscan plate reader (Nair et al. Estrogen receptor-β activation in combination with letrozole blocks the growth of breast cancer tumors resistant to letrozole therapy. Steroids. 2011 July; 76(8):792-6).

[4] = tested on: MDR1, CD44, Sox2, ALDH1, and CD133; test: Western blot of CSC marker expression in PCa (FIG. 7C); assay type: cell-based
Method: (§3) In this study, the cellular signaling disrupted upon EC 914 treatment was analyzed. […] Thus, cancer stemness enrichment upon DTX treatment might be abolished by LIF/LIFR signaling disruption through EC914 inhibitor.

[5] = tested on: NE-1.8 (neuro endocrine-like) prostate cancer cell line; test: Calcein AM fluorescent dye-based cell viability assay, NE-1.8 cells; settings: 96 hours, 50 nM to 250 nm EC914
Method: In one test, NE-1.8 (neuro endocrine-like) prostate cancer cell line was treated with compound 12 (EC914).
After 96 hours, the cell viability was observed using Calcein AM fluorescent dye-based cell viability assay. More than 50-80% of cell growth inhibition was observed from 50 nM to 250 nm concentration of EC914 compared to vehicle control. Similar growth inhibition trend was observed upon treatment with LIF inhibitor on the C42B prostate cancer cell line at 48 hrs.

pSTAT3 = test: Western blot of STAT3 phosphorylation (FIG. 2); assay type: cell-based
Method: It is believed that EC914 binds directly to LIFR and blocks LIF signaling. Binding of EC914 to LIFR was measured by microscale thermophoresis (MST). The binding kD was 174 nM (FIG. 3).
In brief, MDA-MB-231/BT549 cells were treated with compounds for 3 days at different concentrations (10, 100 nM) and cell lysates were separated by 8% SDS-PAGE and transferred to polyvinylidene difluoride membranes. Membranes were then incubated with primary antibodies including phosphorylated and/or total pSTAT3. After overnight incubation at 4° C., membranes were incubated with secondary antibodies. Immunoreactive bands were then visualized by the enhanced chemiluminescence (ECL) detection system (GE healthcare.

other steroid receptors = test: Binding to other steroid receptors; settings: Table 1
MDA-MB-231 xenograft = test: MDA-MB-231 tumor xenograft study; assay type: in vivo, athymic nude mice; settings: TNBC mouse xenograft model, initial 3 doses of 10 mg/kg, oral, FIG. 5
Method: Uniform suspensions of human breast cancer MDA-MB-231 cells (2×10^6) in 100 μL (0.02 carboxymethyl cellulose in phosphate buffered saline) were injected subcutaneously into the right and left flanks of 4- to 5-week-old female athymic nude mice (Charles River Laboratories). After 10 days, when the tumor […] reaches 100 mm^3, the mice were randomly allocated to 3 groups of each containing 6 animals. Group 1 served as the untreated control, groups 2 received EC914 orally at 10 mg/kg daily for 3 doses. All drug was formulated in a vehicle containing 58.5% Labrasol ALF, 22.5% Labrafil M, 1944 CS, 9% Capryol 90 and 10% water q.s. Tumors were allowed to reach palpability before drug intervention. Tumor size was measured every 3 days using digital Vernier Calipers and tumor volume was calculated using the ellipsoid formula [D×(d2)]/2, where D is the large diameter of the tumor and d represents the small diameter. On day 19, the mice were euthanized, and tumors were harvested for protein and gene expression studies since the control tumors reached maximum allowable size as the IACUC regulations (See FIG. 5).

HESE cells = test: Caspase-3/7 apoptosis assay (Caspase-Glo); assay type: cell-based; settings: Caspase-3/7 activity
Method: Caspase-3/7 activity in HESE cells was measured using Caspase-Glo assay kit (Promega), as described before (Bhaskaran et al, 2013). Briefly, cells were homogenized in homogenization buffer (25 mmol/L HEPES, pH 7.5, 5 mmol/L MgCl2, and 1 mmol/L EGTA), protease inhibitors, and the homogenate was centrifuged at 13,000 rpm at 4° C. for 15 minutes. To 10 μL of the supernatant containing protein was added to an equal volume of the assay reagent and incubated at room temperature for 2 hours. The luminescence was measured using a luminometer.

[6] = tested on: 22Rv1 and cE2 mouse syngeneic cells; test: Prostate cancer tumor models in vivo (FIG. 9); settings: 22Rv1 and cE2 subcutaneous tumors in athymic nude mice
Method: 22Rv1 and cE2 mouse syngeneic cells were subcutaneously implanted in athymic nude mice (0.75×10^6/mice). Two weeks after post-implantation, mice were randomized into four groups. Group 1 mice received saline, whereas group 2 and group 3 mice received EC 914 (every alternative day) or DTX (once in 3 days) alone. Finally, group 4 mice were administered with both EC 914 and DTX. […] Based on this rationale, it is believed that LIFR is overexpressed in response to DTX treatment and induces resistance, and enriches the CSC population in metastatic CRPC.

LIFR = molecular target: T1, LIFR (Homo sapiens, UniProt P42702); test: Microscale thermophoresis (MST) binding to LIFR
T1 sequence (P42702 45-1097): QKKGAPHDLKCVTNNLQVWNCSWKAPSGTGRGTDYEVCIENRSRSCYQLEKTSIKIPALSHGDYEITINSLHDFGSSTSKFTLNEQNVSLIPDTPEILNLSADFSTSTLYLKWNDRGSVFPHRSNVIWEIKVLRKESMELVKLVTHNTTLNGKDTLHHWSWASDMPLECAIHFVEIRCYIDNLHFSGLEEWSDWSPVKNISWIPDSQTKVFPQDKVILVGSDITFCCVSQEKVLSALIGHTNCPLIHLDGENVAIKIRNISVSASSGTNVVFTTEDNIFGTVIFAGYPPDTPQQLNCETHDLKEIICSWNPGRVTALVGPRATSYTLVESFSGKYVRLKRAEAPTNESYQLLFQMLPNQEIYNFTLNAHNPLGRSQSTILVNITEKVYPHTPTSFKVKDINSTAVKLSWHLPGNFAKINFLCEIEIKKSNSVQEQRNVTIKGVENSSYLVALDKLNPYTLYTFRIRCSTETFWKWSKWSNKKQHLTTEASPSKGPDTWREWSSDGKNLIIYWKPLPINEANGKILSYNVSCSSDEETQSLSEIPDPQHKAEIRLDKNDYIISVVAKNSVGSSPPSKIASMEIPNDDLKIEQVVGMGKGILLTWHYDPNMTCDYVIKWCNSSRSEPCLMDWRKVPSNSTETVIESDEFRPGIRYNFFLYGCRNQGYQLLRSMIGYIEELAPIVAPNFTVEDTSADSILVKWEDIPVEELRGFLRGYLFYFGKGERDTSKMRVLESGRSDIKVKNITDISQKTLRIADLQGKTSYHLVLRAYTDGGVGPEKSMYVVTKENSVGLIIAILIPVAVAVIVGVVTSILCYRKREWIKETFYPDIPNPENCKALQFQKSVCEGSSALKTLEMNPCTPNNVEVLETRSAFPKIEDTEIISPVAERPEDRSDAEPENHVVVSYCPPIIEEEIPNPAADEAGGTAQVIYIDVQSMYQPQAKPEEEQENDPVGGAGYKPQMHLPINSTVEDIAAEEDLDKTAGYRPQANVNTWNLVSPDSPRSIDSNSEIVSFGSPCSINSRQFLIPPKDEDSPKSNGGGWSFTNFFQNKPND
Method: Binding of EC914 to LIFR was measured by microscale thermophoresis (MST).

[7] = tested on: STAT1, STAT3, AKT, ERK, Myc, and tCyclinD1 proteins; test: Western blot of cellular signaling in PCa cells (FIG. 7A); assay type: cell-based; settings: no change in total proteins
Method: as §3

MCF7/LIF cells = test: Effect on MCF7 cells with artificial LIF expression (FIG. 1); assay type: cell-based; settings: artificial expression of LIF in MCF7 cells
Method: as §1, §2

LIF/LIFR = settings: background; cited from earlier work
[8] = rodent pharmacokinetic (PK) studies
xenograft and PDX models = settings: background; cited from earlier work

C#CC(F)(F)[C@]1(O)CCC2C3CCC4=CC(=O)CCC4=C3[C@@H](c3cccc(C#N)c3C)C[C@@]21C (stereo partly shown) [EC914]
bioavailability ([1]; PK studies in Sprague Dawley rats, FIG. 4): 87.9%
bioavailability ([1]; Table 1): 87.9%
cytotoxicity of Docetaxel in PCa ([2]; 22Rv1 cells, Incucyte Cytotox assay, FIG. 6B): increases cytotoxicity of Docetaxel
viability of PCa cells ([2]; murine and human PCa cells, FIG. 6A): decreases viability
antiproliferative activity [3]: potent antiproliferative activity
key CSC marker expression (MDR1, CD44, Sox2, ALDH1, CD133) [4]: specifically decreases
cell growth inhibition compared to vehicle control [5]: 50-80%
STAT3 phosphorylation (pSTAT3): reduced STAT3 phosphorylation
Binding to other steroid receptors (other steroid receptors): No
tumor burden (MDA-MB-231 xenograft): reduced tumors burden
percent of apoptosis induced (HESE cells): comparable to that of EC359
tumor growth [6]: inhibit tumor growth
Kd (LIFR; MST, FIG. 3, read-out: binding kD to LIFR): 174 nM
Kd (LIFR; Table 1, read-out: LIFR binding): 175 nM
phosphorylation of STAT1 and STAT3 and of AKT, ERK, Myc, tCyclinD1 [7]: decreased

C#CC(F)(F)[C@]1(O)CCC2C3CCC4=CC(=O)CCC4=C3[C@@H](c3ccc(C#N)cc3C)C[C@@]21C (stereo partly shown) [EC915]
vulnerability of MCF7/LIF cells to LIF inhibitors (MCF7/LIF cells): vulnerable

C#CC(F)(F)[C@]1(O)CC[C@H]2[C@@H]3CCC4=CC(=O)CCC4=C3[C@@H](c3ccc(C4CC4)cc3)C[C@@]21C [EC330]
LIF/LIFR mediated proliferation and tumor growth (LIF/LIFR): efficiently inhibited

C#CC(F)(F)[C@]1(O)CCC2C3CCC4=CC(=O)CCC4=C3[C@@H](c3cccc(-c4cccnc4)c3)C[C@@]21C (stereo partly shown) [EC905]
vulnerability of MCF7/LIF cells to LIF inhibitors (MCF7/LIF cells): vulnerable

C#CC(F)(F)[C@]1(O)CC[C@H]2[C@@H]3CCC4=CC(=O)CCC4=C3[C@@H](c3ccc(-c4c(C)cc(C)cc4C)cc3)C[C@@]21C [EC359, reference compound]
oral bioavailability ([1]; Table 1): 16%
Binding to other steroid receptors (other steroid receptors): Low binding to PR
oral bioavailability [8]: 16%
efficacy in preclinical xenograft and PDX models (xenograft and PDX models): good efficacy
